# Measurements from paper PMC10213797 (Acta Pharmaceutica Sinica. B, 2023).
# Assays:
# [1] = system: mice; assay: Rotarod test; format: in vivo
# [2] = system: scopolamine-induced amnesic mice; assay: Passive avoidance; format: in vivo; settings: doses of one and 2 mg/kg; P < 0.001
# [3] = target: T1, hMAO-A (Homo sapiens, UniProt P21397); assay: hMAO-A inhibition, horseradish-Amplex Red coupled assay; format: biochemical
# T1 sequence (P21397 1-527): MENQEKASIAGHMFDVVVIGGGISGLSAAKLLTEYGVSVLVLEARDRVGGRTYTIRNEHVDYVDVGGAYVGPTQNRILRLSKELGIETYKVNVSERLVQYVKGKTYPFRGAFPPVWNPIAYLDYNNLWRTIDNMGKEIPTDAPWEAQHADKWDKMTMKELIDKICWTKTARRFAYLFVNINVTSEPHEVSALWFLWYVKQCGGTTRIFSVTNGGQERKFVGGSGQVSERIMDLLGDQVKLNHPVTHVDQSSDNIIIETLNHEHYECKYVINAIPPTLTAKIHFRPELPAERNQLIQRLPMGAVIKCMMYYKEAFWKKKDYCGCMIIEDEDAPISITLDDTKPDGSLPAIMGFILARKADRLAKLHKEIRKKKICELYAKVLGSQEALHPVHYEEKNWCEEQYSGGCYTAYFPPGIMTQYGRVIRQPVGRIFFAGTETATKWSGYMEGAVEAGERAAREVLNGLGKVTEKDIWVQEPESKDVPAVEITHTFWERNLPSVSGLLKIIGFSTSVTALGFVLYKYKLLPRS
# [4] = target: T2, hMAO-B (Homo sapiens, UniProt P27338); assay: hMAO-B inhibition, horseradish-Amplex Red coupled assay; format: biochemical
# T2 sequence (P27338 1-520): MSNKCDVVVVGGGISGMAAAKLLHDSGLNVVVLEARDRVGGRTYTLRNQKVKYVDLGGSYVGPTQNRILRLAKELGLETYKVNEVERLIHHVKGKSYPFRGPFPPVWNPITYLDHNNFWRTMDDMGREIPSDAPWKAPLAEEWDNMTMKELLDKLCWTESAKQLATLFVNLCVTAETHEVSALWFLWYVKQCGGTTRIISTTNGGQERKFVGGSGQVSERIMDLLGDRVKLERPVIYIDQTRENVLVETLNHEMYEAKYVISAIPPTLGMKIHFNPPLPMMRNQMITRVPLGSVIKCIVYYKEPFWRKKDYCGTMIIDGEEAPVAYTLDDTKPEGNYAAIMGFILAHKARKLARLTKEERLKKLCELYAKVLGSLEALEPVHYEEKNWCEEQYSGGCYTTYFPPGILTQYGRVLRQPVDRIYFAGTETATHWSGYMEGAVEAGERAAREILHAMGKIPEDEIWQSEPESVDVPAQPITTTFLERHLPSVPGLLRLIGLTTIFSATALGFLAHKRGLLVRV
# [5] = target: hAChE (Homo sapiens, UniProt P22303); assay: hAChE inhibition, Ellman's method; format: biochemical
# hAChE, sequence (P22303 32-614): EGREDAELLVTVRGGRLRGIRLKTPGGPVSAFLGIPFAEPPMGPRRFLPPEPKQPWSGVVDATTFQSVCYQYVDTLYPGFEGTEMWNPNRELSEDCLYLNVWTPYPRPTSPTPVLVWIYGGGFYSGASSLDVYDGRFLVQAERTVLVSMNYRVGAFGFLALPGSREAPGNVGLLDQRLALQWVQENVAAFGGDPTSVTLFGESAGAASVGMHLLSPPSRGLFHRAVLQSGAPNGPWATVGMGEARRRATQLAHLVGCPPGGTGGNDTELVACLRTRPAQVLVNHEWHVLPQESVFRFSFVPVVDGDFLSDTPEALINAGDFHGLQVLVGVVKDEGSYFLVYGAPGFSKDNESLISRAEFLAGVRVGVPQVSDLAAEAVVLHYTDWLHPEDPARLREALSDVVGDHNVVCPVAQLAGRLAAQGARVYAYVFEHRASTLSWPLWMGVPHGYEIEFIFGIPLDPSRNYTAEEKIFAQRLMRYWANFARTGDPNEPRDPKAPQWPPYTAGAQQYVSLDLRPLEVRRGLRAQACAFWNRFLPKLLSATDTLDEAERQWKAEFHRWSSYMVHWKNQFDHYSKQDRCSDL
# [6] = target: T3, hBChE (Homo sapiens, UniProt P06276); assay: hBChE inhibition, Ellman's method; format: biochemical
# T3 sequence (P06276 29-602): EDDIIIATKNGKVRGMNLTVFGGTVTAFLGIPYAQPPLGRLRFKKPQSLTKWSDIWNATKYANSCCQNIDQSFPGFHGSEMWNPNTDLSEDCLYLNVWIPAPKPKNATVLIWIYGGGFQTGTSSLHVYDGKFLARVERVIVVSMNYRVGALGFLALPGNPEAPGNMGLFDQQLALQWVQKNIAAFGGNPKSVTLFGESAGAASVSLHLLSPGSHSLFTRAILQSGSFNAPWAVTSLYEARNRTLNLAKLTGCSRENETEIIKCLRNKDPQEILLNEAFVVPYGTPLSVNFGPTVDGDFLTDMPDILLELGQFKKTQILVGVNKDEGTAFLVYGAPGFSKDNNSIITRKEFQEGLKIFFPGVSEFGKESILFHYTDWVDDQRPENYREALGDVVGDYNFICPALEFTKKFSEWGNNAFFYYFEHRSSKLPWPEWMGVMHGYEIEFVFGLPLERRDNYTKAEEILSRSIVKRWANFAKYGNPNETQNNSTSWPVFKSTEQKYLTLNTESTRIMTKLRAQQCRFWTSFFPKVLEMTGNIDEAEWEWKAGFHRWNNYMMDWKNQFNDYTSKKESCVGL
# [7] = system: horse serum BChE (eqBChE); settings: cited from earlier work
# [8] = system: murine AChE; settings: cited from earlier work
# [9] = system: Electrophorus electricus AChE (eeAChE); settings: cited from earlier work
# [10] = target: Aβ1–42 (Homo sapiens, UniProt P05067); assay: Aβ1–42 aggregation inhibition, ThT fluorescence assay; format: biochemical
# Aβ1–42, sequence (P05067 672-713): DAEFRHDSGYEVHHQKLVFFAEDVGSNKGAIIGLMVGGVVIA
# [11] = system: LPS-activated BV2 cells; assay: Neuroprotection in LPS-induced BV2 neuroinflammation model, 7-AAD; format: cell-based; settings: BV2, LPS 1 μg/mL, 19 at 0.5–5 μmol/L
# [12] = system: SH-SY5Y cells; assay: Metabolic activity, MTS assay, SH-SY5Y; format: cell-based; settings: 24 h, 1–100 μmol/L
# [13] = system: microglial BV2 cells; assay: Cytotoxicity, 7-AAD flow cytometry, BV2; format: cell-based; settings: at 10 μmol/L; sentence does not say which of SH-SY5Y/BV2
# [14] = Metal chelation, UV–Vis spectra and Cu2+ titration; format: physicochemical; settings: 30 μmol/L QN, equimolar metal ion, HEPES pH 7.4
# [15] = system: LPS-activated BV2 cells; assay: Nitrite quantification, Griess assay, LPS-stimulated BV2; format: cell-based; settings: BV2, LPS 1 μg/mL, 19 at 5 μmol/L
# [16] = system: APPSwe/PS1δE9 double transgenic mice; assay: Aβ plaque load after chronic treatment, Thioflavin S staining; settings: male and female mice at 10 months of age, 0.62 mg/kg/day, 4-month treatment
# [17] = target: T3, hBChE; assay: hBChE inhibition kinetics, progress curves of BTCI hydrolysis; format: biochemical; settings: 50 μmol/L BTCI, 25 °C, pH 7.0
# [18] = system: SH-SY5Y cells treated with 6-OHDA; assay: Neuroprotection against 6-OHDA toxicity, 7-AAD; format: cell-based; settings: 100 μmol/L 6-OHDA
# [19] = target: T4, purified recombinant hMAO-B (Homo sapiens, UniProt P27338); assay: hMAO-B steady-state kinetics, direct MMTP assay; format: biochemical; settings: MMTP substrate
# T4 sequence (P27338 1-520): T2 sequence (P27338 1-520)
# [20] = DPPH radical-scavenging assay; settings: read-out: Radical-scavenging DPPH assay EC50; means ± SEM (n = 2, in triplicates)
# [21] = BBB-PAMPA permeability; settings: PAMPA, pH 7.4, BBB–PAMPA permeability Papp (mean ± SD), pH 7.4, 4 h, 25 °C, brain sink buffer
# [22] = system: HepG2 cells; assay: Metabolic activity, MTS assay, HepG2; format: cell-based; settings: HepG2, 24 h, 1–100 μmol/L
# [23] = IC50 ± SEM hBChE, Table 1, n = 3, in triplicates
structure (smiles),measurement,setting,value
"CCN(C)C(=O)Oc1cccc([C@H](C)N(C)C)c1 [rivastigmine, reference compound]",motor effects shortly after administration,[1]; 2.5 mg/kg,caused muscle tremor and transient motor coordination deficits
same,step-through latency in retention trial versus scopolamine-treated control,[2],significant differences
"[O-]/[N+](=C\c1cc2cccc(OCCCN3CCCCC3)c2nc1Cl)Cc1ccccc1 [QN 6, (Z)-N-Benzyl-1-(2-chloro-8-(3-(piperidin-1-yl)propoxy)quinolin-3-yl)methanimine oxide]",IC50,[3],106 ± 3.7 µM
same,IC50,[4],50.4 ± 4.5 µM
same,IC50,[5],68.6 ± 13.6 µM
same,IC50,[6]; [23],10.2 ± 1.1 µM
"O=Cc1ccc2cccc(O)c2n1 [QN 30, 8-hydroxyquinoline-2-carbaldehyde]",IC50,[4],43.9 ± 3.4 µM
"CC(C)(C)/[N+]([O-])=C/c1ccccc1 [PBN, α-phenyl-tert-butylnitrone]",hAChE inhibition (in words),[5],no inhibition
same,IC50,[7]; read-out: eqBChE IC50,478 ± 38 µM
same,murine AChE Ki′,[8],2.99 mmol/L
same,Ki,[8]; read-out: murine AChE Ki,580 µM
same,eeAChE inhibition (in words),[9],no inhibition
"[O-]/[N+](=C\c1ccc2cccc(O)c2n1)Cc1ccccc1 [QN 19, (Z)-N-Benzyl-1-(8-hydroxyquinolin-2-yl)methanimine oxide]",Inhibition of Aβ1–42 aggregation,"[10]; 10 μmol/L ligand and 1.5 μmol/L Aβ1–42, mean ± SD (n ≥ 3)","n.i. ^e (n.i., no inhibition <20%)"
same,inhibition of self-induced aggregation of Aβ1–42 (in words),[10]; ThT fluorescence assay,inactive
same,"neuroprotective effects on cell viability, LPS model",[11],No neuroprotective effects on cell viability
same,concentrations at which metabolic activity is reduced (MTS),[12],higher than 10 μmol/L
same,cell viability (7-AAD),[13],reduced cell viability to a significant extent
same,chelation of Ca^2+ and Mg^2+,[14],did not chelate
same,"complexes with Zn^2+, Cu^2+, Al^3+, Fe^2+ and Fe^3+",[14],generated corresponding complexes
same,LPS-induced nitrite concentration,[15],reduced LPS-induced increase in nitrite concentration
same,effect on Aβ plaques of chronic treatment started later,[16],inefficient
same,motor impairments in the rotarod test,"[1]; 30 mg/kg i.p., 6, 18, and 24 rpm",did not result in any motor impairments
same,"Kii, dissociation constant for binding of the second molecule to hBChE",[17],14.5 nmol/L
same,IC50,"[6]; hBChE IC50, abstract",0.00106 ± 0.00031 µM
same,cell viability under 6-OHDA co-treatment,[18]; 19 at 0.5 and 1 μmol/L,increased cell viability
same,neuroprotective activity under 6-OHDA co-treatment,[18]; 19 at 2.5 and 5 μmol/L,neuroprotective activity was lost
same,mode of hMAO-B inhibition (best fit),[19],competitive inhibition model
same,EC50,[20],126 ± 0.1 µM
same,"Papp at 4 h, 100 μmol/L",[21],≥ 37.2 ×10⁻⁶ cm/s
same,concentrations at which metabolic activity is reduced (MTS),[22],higher than 10 μmol/L
"C#CCN1CCN(CCCOc2cccc3cc(/C=[N+](\[O-])Cc4ccccc4)c(Cl)nc23)CC1 [QN 8, (Z)-N-Benzyl-1-(2-chloro-8-(3-(4-(prop-2-yn-1-yl)piperazin-1-yl)propoxy)quinolin-3-yl)methanimine oxide]",IC50,[3],14.9 ± 1.2 µM
same,IC50,[4],13.8 ± 1.8 µM
same,IC50,[6]; [23],14.8 ± 2.1 µM
CNC1=Nc2ccc(Cl)cc2C(c2ccccc2)=[N+]([O-])C1 [chlordiazepoxide],Ki,[7]; read-out: eqBChE Ki,300 ± 40 nM
same,Ki,[9]; read-out: eeAChE Ki,50 ± 7 µM
"CC(C)(C)/[N+]([O-])=C/c1cc2cccc(OCCCN3CCCCC3)c2nc1Cl [QN 5, (Z)-N-tert-Butyl-1-(2-chloro-8-(3-(piperidin-1-yl)propoxy)quinolin-3-yl)methanimine oxide]",IC50,[3],113 ± 13.2 µM
same,IC50,[5],44.7 ± 4.8 µM
same,IC50,[6]; [23],5.57 ± 0.46 µM
